Experimental data reported in patent US20200071316A1, “ACTIVATORS OF THE RETINOIC ACID INDUCIBLE GENE "RIG-I" PATHWAY AND METHODS OF USE THEREOF” (Kineta Immuno-Oncology LLC, priority 2018, published 2020).
Marks after values point to notes of the source that are not given here.

Legend:
[1] = tested on: CXCL10 secretion by CT26 cells; experiment: RIG-I dependent CXCL10 secretion by CT26 colon carcinoma cells (ELISA); assay type: cell-based, murine; details: 24 h
Method in brief: (§1)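 Murine CT26 colon carcinoma cells, and CRISPR-generated RIG-I knockout CT26 cells, were seeded at 1×10^4 cells/well and grown 24 h at 37 °C, 5% CO2, then treated with compounds at 5 to 20 μM. CXCL10 in supernatants was measured by ELISA 24 h after stimulation.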

[2] = tested on: THP1-Lucia ISG IRF3 −/− cells; experiment: IRF3-deficient THP1-Lucia ISG IRF3 −/− reporter assay (counter-screen); assay type: cell-based; details: Homo sapiens, 18 h after stimulation, read-out: THP1 ISG IRF3 −/−: fold increase of luciferase activity over background; for fold induction at 10 µM: 10 μM compound; for fold induction at 5 µM: 5 μM compound (**)
Method in brief: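 PMA-differentiated (100 ng/ml) reporter cells carrying ISRE/ISG54 minimal promoter-driven secreted luciferase were stimulated with compounds at 5–20 μM (mostly 10 μM). Luciferase measured 18 h later and expressed as fold increase over untreated background, binned from "−" (<2.4-fold) to "+++++" (≥40-fold).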

[3] = tested on: IRF3 signaling pathway (IRF-inducible ISG54 promotor) in THP1-Lucia ISG cells; experiment: THP1-Lucia ISG reporter assay: induction of IRF3-dependent luciferase activity; assay type: cell-based; details: Homo sapiens, PMA-differentiated cells, 18 h after stimulation, read-out: THP1 ISG: fold increase of IRF3-dependent luciferase activity over background; for fold induction at 10 µM: 10 μM compound; for fold induction at 5 µM: 5 μM compound (**)
Method in brief: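 PMA-differentiated (100 ng/ml) reporter cells, parental and IRF3−/−, stimulated with compounds at 5–20 μM (mostly 10 μM). Secreted luciferase measured 18 h later. Scored as fold increase over untreated background in bands from "−" (<2.4-fold) to "+++++" (≥40-fold).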

[4] = tested on: RIG-I deficient CT26 RIG-1−/− cells; experiment: CXCL10 secretion in RIG-I deficient CT26 RIG-1−/− cells (ELISA); assay type: cell-based, murine; details: 24 h
Method in brief: as §1

[5] = tested on: murine CT26 colon carcinoma cells; experiment: Compound-induced immunogenic cell death: apoptosis (Annexin V+) by flow cytometry; assay type: cell-based; details: 18 h after treatment, dose titration, FIG. 1A
Excerpt: (§2) To determine if the RIG-I agonist compounds induce immunogenic cell death in cancer cells, induction of apoptosis and the translocation or of calreticulin (CRT) to the cell surface in murine CT26 colon carcinoma cells were evaluation. The translocation of CRT occurs as part of a specific RIG-I dependent danger-signaling system, and the presence of CRT on the cell membrane promotes tumor antigen uptake by the dendritic cells and leads to the induction of am antigen-specific T cell response
(§3) The induction of apoptosis and the CRT translocation was measured by flow cytometry. […] Cells were harvested 18 h after treatment and then prepared for flow cytometry using an Annexin V staining kit (Biolegend) for quantification of apoptosis, an anti-CRT antibody (Abgent) for calreticulin translocation, and the Live/Dead-Violet staining kit (Thermofisher) for cell viability. Induction of apoptosis and translocation of calreticulin (CRT) to cell surface by live cells was determined by tri-color flow cytometry using FITC-labeled Annexin V, Live/Dead-Violet (LDV), and APC-anti-CRT. Apoptotic cells were defined as Annexin V^+ and calreticulin translocation to cell surface was quantified by mean fluorescent intensity (MFI) of calreticulin^+ live cells (CRT^+ LDV^−). […]

[6] = tested on: murine CT26 colon carcinoma cells; experiment: Compound-induced immunogenic cell death: calreticulin translocation to cell surface (MFI of CRT+ LDV− cells); assay type: cell-based; details: 18 h after treatment, dose titration, FIG. 1B
Excerpt: as §2, §3

| SMILES | CXCL10 secretion by CT26 cells ([1]; 10 μM compound) | fold induction at 10 µM [2] | fold induction at 10 µM [3] | CXCL10 secretion by CT26 RIG-I −/− cells ([4]; 10 μM compound) | induction of immunogenic cell death: apoptosis (Annexin V+) [5] | induction of immunogenic cell death: calreticulin translocation to cell surface [6] | CXCL10 secretion by CT26 cells ([1]; 5 μM compound (**)) | fold induction at 5 µM [2] | fold induction at 5 µM [3] | CXCL10 secretion by CT26 RIG-I −/− cells ([4]; 5 μM compound (**)) |
| --- | --- | --- | --- | --- | --- | --- | --- | --- | --- | --- |
| O=C(Nc1c(Cl)cccc1Cl)c1ccc2nc(NC(=O)c3cc4ccccc4cc3OCCCCN3CCOCC3)sc2c1 [Example 19, N-(2,6-dichlorophenyl)-2-{3-[4-(morpholin-4-yl)butoxy]naphthalene-2-amido}-1,3-benzothiazole-6-carboxamide] | ++++ (“++++” indicates 800 to 1599 pg/mL) | < 2.4 | 5 to 9.9 | − (“−” indicates less than 100 pg/mL) | induction of immunogenic cell death | induction of immunogenic cell death |  |  |  |  |
| O=C(Nc1nc2ccc(S(=O)(=O)N3CCCC3)cc2s1)c1ccc(-c2cccnc2)cc1 [Example 53, 4-(pyridin-3-yl)-N-[6-(pyrrolidine-1-sulfonyl)-1,3-benzothiazol-2-yl]benzamide] | − (“−” indicates less than 100 pg/mL) | < 2.4 | 2.4 to 4.9 | − (“−” indicates less than 100 pg/mL) |  |  |  |  |  |  |
| O=C(Nc1cc2ccc(S(=O)(=O)N3CCCC3)cc2s1)c1ccc(-c2ccccc2)cc1OCCN1CCOCC1 [Example 71, 3-[2-(morpholin-4-yl)ethoxy]-N-[6-(pyrrolidine-1-sulfonyl)-1-benzothiophen-2-yl]-[1,1′-biphenyl]-4-carboxamide] | − (“−” indicates less than 100 pg/mL) | < 2.4 | < 2.4 | − (“−” indicates less than 100 pg/mL) |  |  |  |  |  |  |
| COC(=O)c1ccc2nc(NC(=O)c3cc4ccccc4cc3OCCCCN3CCOCC3)sc2c1 [Example 66, methyl 2-{3-[4-(morpholin-4-yl)butoxy]naphthalene-2-amido}-1,3-benzothiazole-6-carboxylate] |  |  |  |  |  |  | ++** (“++” indicates 200-399 pg/mL) | < 2.4 | 5 to 9.9 | −** (“−” indicates less than 100 pg/mL) |
| O=C(Nc1nc2ccc(C(=O)Nc3c(Cl)cccc3Cl)cc2s1)c1ccc2ncccc2c1 [Example 15, N-{6-[(2,6-dichlorophenyl)carbamoyl]-1,3-benzothiazol-2-yl}quinoline-6-carboxamide] | ++++ (“++++” indicates 800 to 1599 pg/mL) | < 2.4 | 20 to 39 | − (“−” indicates less than 100 pg/mL) |  |  |  |  |  |  |
| O=C(Nc1nc2ccc(NC(=O)C3CCCCC3)cc2s1)c1cc2ccccc2cc1OCCN1CCOCC1 [Example 21, N-(6-cyclohexaneamido-1,3-benzothiazol-2-yl)-3-[2-(morpholin-4-yl)ethoxy]naphthalene-2-carboxamide] |  | < 2.4 | 5 to 9.9 |  |  |  | +** (“+” indicates 100-199 pg/mL) |  |  | −** (“−” indicates less than 100 pg/mL) |
| COC(=O)c1ccc2nc(NC(=O)c3cc4ccccc4cc3OCCN3CCOCC3)sc2c1 [Example 69, methyl 2-{3-[2-(morpholin-4-yl)ethoxy]naphthalene-2-amido}-1,3-benzothiazole-6-carboxylate] |  |  |  |  |  |  | ++** (“++” indicates 200-399 pg/mL) | < 2.4 | 5 to 9.9 | −** (“−” indicates less than 100 pg/mL) |
| O=C(Nc1nc2ccc(S(=O)(=O)N3CCOCC3)cc2s1)c1ccc2ccccc2c1 [Example 3, N-[6-(morpholine-4-sulfonyl)-1,3-benzothiazol-2-yl]naphthalene-2-carboxamide] | +++ (“+++” indicates 400-799 pg/mL) | < 2.4 | 10 to 19 | − (“−” indicates less than 100 pg/mL) |  |  |  |  |  |  |
| O=C(Nc1nc2ccc(S(=O)(=O)N3CCC(O)C3)cc2s1)c1cc2ccccc2cc1OCCCCN1CCOCC1 (centres unmarked) [Example 57, N-{6-[(3-hydroxypyrrolidin-1-yl)sulfonyl]-1,3-benzothiazol-2-yl}-3-[4-(morpholin-4-yl)butoxy]naphthalene-2-carboxamide] | +++ (“+++” indicates 400-799 pg/mL) | < 2.4 | 10 to 19 | − (“−” indicates less than 100 pg/mL) |  |  |  |  |  |  |
| O=C(Nc1nc2ccc(S(=O)(=O)N3CC[C@@H](O)C3)cc2s1)c1cc2ccccc2cc1OCCN1CCOCC1 [Example 77, N-(6-{[(3R)-3-hydroxypyrrolidin-1-yl]sulfonyl}-1,3-benzothiazol-2-yl)-3-[2-(morpholin-4-yl)ethoxy]naphthalene-2-carboxamide] | + (“+” indicates 100-199 pg/mL) | < 2.4 | 2.4 to 4.9 | − (“−” indicates less than 100 pg/mL) |  |  |  |  |  |  |
| O=C(Nc1cc2ccc(S(=O)(=O)N3CCCC3)cc2s1)c1ccc(-c2ccccc2)cc1OCCCCN1CCOCC1 [Example 68, 3-[4-(morpholin-4-yl)butoxy]-N-[6-(pyrrolidine-1-sulfonyl)-1-benzothiophen-2-yl]-[1,1′-biphenyl]-4-carboxamide] | ++++ (“++++” indicates 800 to 1599 pg/mL) | < 2.4 | 20 to 39 | − (“−” indicates less than 100 pg/mL) |  |  |  |  |  |  |
| O=C(Nc1nc2ccc(S(=O)(=O)N3CC[C@@H](O)C3)cc2s1)c1cc2ccccc2cc1OCCCCN1CCOCC1 [Example 78, N-(6-{[(3R)-3-hydroxypyrrolidin-1-yl]sulfonyl}-1,3-benzothiazol-2-yl)-3-[4-(morpholin-4-yl)butoxy]naphthalene-2-carboxamide] | +++++ (“+++++” indicates greater than or equal to 1600 pg/ml) |  | ≥ 40 | − (“−” indicates less than 100 pg/mL) |  |  |  | < 2.4 |  |  |
| O=C(Nc1nc2ccc(SC(F)(F)F)cc2s1)c1ccc2ccccc2c1 [Example 9, N-{6-[(trifluoromethyl)sulfanyl]-1,3-benzothiazol-2-yl}naphthalene-2-carboxamide] | +++ (“+++” indicates 400-799 pg/mL) | < 2.4 | 5 to 9.9 | − (“−” indicates less than 100 pg/mL) |  |  |  |  |  |  |
| O=C(Nc1nc2ccc(S(=O)(=O)N3CCCC3)cc2s1)c1cc2c(cc1OCCCCN1CCOCC1)OCO2 [Example 43, 6-[4-(morpholin-4-yl)butoxy]-N-[6-(pyrrolidine-1-sulfonyl)-1,3-benzothiazol-2-yl]-2H-1,3-benzodioxole-5-carboxamide] | ++++ (“++++” indicates 800 to 1599 pg/mL) | < 2.4 | 5 to 9.9 | − (“−” indicates less than 100 pg/mL) |  |  |  |  |  |  |
| COC(=O)c1ccc2nc(NC(=O)c3ccc4ccccc4c3)sc2c1 [Example 2, methyl 2-(naphthalene-2-amido)-1,3-benzothiazole-6-carboxylate] | ++++ (“++++” indicates 800 to 1599 pg/mL) | < 2.4 | ≥ 40 | − (“−” indicates less than 100 pg/mL) |  |  |  |  |  |  |
